Results taken from patent US5225411A, “Disubstituted polymethyleneimines” (priority 1990, dated 1993).
Several values for one entry are separate records, joined by “and”; a condition that tells them apart may be missing. Equal values may be shown once. Read-outs that look alike come from different tables or passages of the source.

Key:
[1] = tested on: murine leukaemia P 388/ADR 10; assay: Evaluation of the increase in cytotoxicity of adriamycin on the line P 388/ADR-10 in vitro (reversion factor); assay type: cell-based; settings: P 388/ADR 10, resistance induced by adriamycin
[2] = tested on: murine leukaemia P388/ADR
Description: D) In Vivo Reversion of the Acquired Resistance to Medicaments
10^6 cells are implanted by the intraperitoneal route into female B6 D2 F1 mice on day 0 and treatment commences the following day in accordance with the administration schemes indicated.
The parameter measured is the survival time, allowing the calculation of T/C: [formula]
The variation in weight is calculaed; it provides information on the toxicity of the treatment. The control groups comprise from 15 to 27 animals and the treated groups from 5 to 10 animals.
Six independent experiments were carried out. The assays were performed over 4 days in accordance with the scheme D1-4 the tumour cells being implanted on DO and the reversing agent and the cytotoxic agnet being administered on D1, D2, D3, and D4.

line DC-3F/AD = assay: Flow cytometry, increase in fluorescence of ADR on the line DC-3F/AD; assay type: cell-based, Chinese Hamster; settings: ADR 50 μM, 5 h
Protocol: (§1) By measuring that fluorescence it is possible to obtain a relative measurement of the intracellular concentration of ADR.
(§2) […] After 5 hours' incubation, the intracellular uptake of adriamycin was evaluated by FCM.
(§3) The analysis of each of the samples was carried out on a total of 10,000 cells at a speed of 1000 cells/sec.
(§4) The results were presented in the form of linear histograms of the intracellular ADR fluorescence.
(§5) Expression of the Results
(§6) For each of the histograms, the channel mean fluorescence was determined by the apparatus information system. For all experiments:
(§7) A negative control (cells without ADR) fixed the autofluorescence threshold.
(§8) A positive control (cells with ADR) determined the MEAN value=MN1.
(§9) The "test" tubes (cells with ADR and with compound) were used to determine, for each of the compounds and at each of the concentrations, the MEAN values=MN2.
(§10) The results are expressed in the form of variations from the mean fluorescence obtained for each of the "test" tubes (MN2) in relation to the mean fluorescence obtained with the […] (MNl) : VAR-MEAN=MN2 -MN1. The parameter expressed is thus the increase in the fluorescence of adriamycin in the presence of the tested compounds.

[3] = tested on: Chinese Hamster Pulmonary Line DC-3F/AD; assay: Increase in the cytotoxicity of actinomycin D on the Chinese hamster pulmonary line DC-3F/AD; assay type: cell-based; settings: 4 days;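 note: DC-3F/AD is an extremely resistant cell line whose resistance factor exceeds 10,000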
Description: The cytotoxic agent used was actinomycin D.
Line DC-3F/AD is an extremely resistant line. Its resistance factor is higher than 10,000.

[4] = tested on: murine leukaemia P 388/ADR 10; assay: Evaluation of the increase in cytotoxicity of adriamycin on the line P 388/ADR-10 in vitro (reversion factor); assay type: cell-based; settings: for Reversion Factor (RF): adriamycin, P 388/ADR-10, 48 h, TOX = toxic
Protocol: In this study, the cytotoxicity of adriamycin was measured in the absence and in the presence of the reversing compound.
The compounds tested for their capacity to reverse MDR are added at the same time as the cytotoxic agent. The cells are then incubated for 48 hours.

line P 388/ADR 10 = assay: Flow cytometry, increase in fluorescence of ADR on the line P 388/ADR 10; assay type: cell-based, murine; settings: ADR 50 μM, 5 h
Protocol: as §1, §2, §3, §4, §5, §6, §7, §8, §9, §10

[5] = in vivo; cited from earlier work
[6] = ADR 2 mg/kg alone, i.p., D1-4, n=2
[7] = ADR 4 mg/kg alone, i.p., D1-4, n=6
[8] = Example 1 50 mg/kg + ADR 2 mg/kg, i.p., D1-4, n=2
[9] = Example 1 50 mg/kg + ADR 4 mg/kg, i.p., D1-4, n=2
[10] = Example 1 50 mg/kg alone, i.p., D1-4, n=2
[11] = Example 1 100 mg/kg + ADR 2 mg/kg, i.p., D1-4, n=2
[12] = Example 1 100 mg/kg + ADR 4 mg/kg, i.p., D1-4, n=6
[13] = Example 1 100 mg/kg alone, i.p., D1-4, n=6
[14] = Example 1 200 mg/kg + ADR 2 mg/kg, i.p., D1-4, n=4
[15] = Example 1 200 mg/kg alone, i.p., D1-4, n=4

COc1cccc2c1C(=O)c1c(O)c3c(c(O)c1C2=O)C[C@@](O)(C(=O)CO)C[C@@H]3O[C@H]1C[C@H](N)[C@H](O)[C@H](C)O1 [ADR, adriamycin, reference compound]
factor of resistance in relation to the sensitive line [1]: 260 | T/C, extreme values [2, 6]: 116.7-120% | T/C, mean ± s.e.m. [2, 6]: 118.3% | T/C, median [2, 6]: 118.3% | T/C, extreme values [2, 7]: 105-130% | T/C, mean ± s.e.m. [2, 7]: 115.1 ± 3.9% | T/C, median [2, 7]: 112.5% | antitumour activity ([2]; ADR alone, P388/ADR): not exhibiting any antitumour activity | T/C ([2]; ADR alone, i.p.): < 120%

C=CCNc1nc(NCC=C)nc(N2CCC(NCC(c3ccc(F)cc3)c3ccc(F)cc3)CC2)n1 [Example 1, 1-[4,6-bis(allylamino)-2-s-triazinyl]-4-[2,2-bis(p-fluorophenyl)ethylamino]piperidine]
Increase in fluorescence of ADR (VAR-MEAN = MN2 - MN1) (line DC-3F/AD; compound 2 μM): 18.27 | Increase in fluorescence of ADR (VAR-MEAN = MN2 - MN1) (line DC-3F/AD; compound 5 μM): 26.13 | Increase in fluorescence of ADR (VAR-MEAN = MN2 - MN1) (line DC-3F/AD; compound 10 μM): 35.57 | Increase in fluorescence of ADR (VAR-MEAN = MN2 - MN1) (line DC-3F/AD; compound 20 μM): 43.63 | Reversion Factor (RF) ([3]; compound 2.5 μM): 171 | Reversion Factor (RF) ([3]; compound 5 μM): 905 | Reversion Factor (RF) ([3]; compound 10 μM): 2575 | Reversion Factor (RF) ([3]; compound 20 μM): TOX | Reversion Factor (RF) ([4]; compound 2.5 μM): 110.8 | Reversion Factor (RF) ([4]; compound 5 μM): 244.4 | Reversion Factor (RF) ([4]; compound 10 μM): 170.7 | T/C, extreme values [2, 8]: 120-141.7% | T/C, mean ± s.e.m. [2, 8]: 130.9% | T/C, median [2, 8]: 130.9% | T/C, extreme values [2, 9]: 116.7-140% | T/C, mean ± s.e.m. [2, 9]: 128.4% | T/C, median [2, 9]: 128.4% | T/C, extreme values [2, 10]: 90-108.3% | T/C, mean ± s.e.m. [2, 10]: 99.2% | T/C, median [2, 10]: 99.2% | T/C, extreme values [2, 11]: 116.7-140% | T/C, mean ± s.e.m. [2, 11]: 128.4% | T/C, median [2, 11]: 128.4% | T/C, extreme values [2, 12]: 120-150% | T/C, mean ± s.e.m. [2, 12]: 134.2 ± 4.4% | T/C, median [2, 12]: 134.2% | T/C, extreme values [2, 13]: 85-100% | T/C, mean ± s.e.m. [2, 13]: 91.7 ± 2.8% | T/C, median [2, 13]: 90% | increase in activity as a result of the compound of Example 1 ([2]; Example 1 200 mg/kg + ADR 2 mg/kg, i.p.): 30.6% | T/C, extreme values [2, 14]: 140-155.6% | T/C, mean ± s.e.m. [2, 14]: 148.9% and 148.9 ± 3.2% | T/C, median [2, 14]: 150% | activity ([2]; Example 1 200 mg/kg + ADR 2 mg/kg, T/C ≥ 135% good activity): good activity | T/C, extreme values [2, 15]: 80-88.9% | T/C, mean ± s.e.m. [2, 15]: 83.5 ± 2.2% | T/C, median [2, 15]: 82.5% | toxicity ([2]; Example 1 alone, 200 mg/kg, i.p., T/C ≤ 85% toxic): only moderately toxic | antitumour activity ([2]; Example 1 alone, 50 to 200 mg/kg, i.p.): does not possess any antitumour activity | activity ([2]; Example 1 at 50 and 100 mg/kg (Table V: with ADR), T/C ≥ 120% moderate activity): modest activity | Increase in fluorescence of ADR (VAR-MEAN = MN2 - MN1) (line P 388/ADR 10; compound 2 μM): 53.1 | Increase in fluorescence of ADR (VAR-MEAN = MN2 - MN1) (line P 388/ADR 10; compound 5 μM): 74.1 | Increase in fluorescence of ADR (VAR-MEAN = MN2 - MN1) (line P 388/ADR 10; compound 10 μM): 85.49 | Increase in fluorescence of ADR (VAR-MEAN = MN2 - MN1) (line P 388/ADR 10; compound 20 μM): 78.5

C=CCNc1cc(N2CCC(NCCC(c3ccccc3)c3ccccc3)CC2)nc(NCC=C)n1 [Example 9, 1-(bis-2,4-allylamino-6-pyrimidinyl)-4-(3,3-diphenylpropylamino)piperidine]
Increase in fluorescence of ADR (VAR-MEAN = MN2 - MN1) (line DC-3F/AD; compound 2 μM): 7.2 | Increase in fluorescence of ADR (VAR-MEAN = MN2 - MN1) (line DC-3F/AD; compound 5 μM): 15.1 | Increase in fluorescence of ADR (VAR-MEAN = MN2 - MN1) (line DC-3F/AD; compound 10 μM): 16.3 | Increase in fluorescence of ADR (VAR-MEAN = MN2 - MN1) (line DC-3F/AD; compound 20 μM): 26.2 | Reversion Factor (RF) ([3]; compound 2.5 μM): 94 | Reversion Factor (RF) ([3]; compound 5 μM): 472 | Reversion Factor (RF) ([3]; compound 10 μM): TOX | Reversion Factor (RF) ([4]; compound 2.5 μM): 80.4 | Reversion Factor (RF) ([4]; compound 5 μM): TOX | Reversion Factor (RF) ([4]; compound 10 μM): TOX | Increase in fluorescence of ADR (VAR-MEAN = MN2 - MN1) (line P 388/ADR 10; compound 2 μM): 39.2 | Increase in fluorescence of ADR (VAR-MEAN = MN2 - MN1) (line P 388/ADR 10; compound 5 μM): 55.8 | Increase in fluorescence of ADR (VAR-MEAN = MN2 - MN1) (line P 388/ADR 10; compound 10 μM): 65.8 | Increase in fluorescence of ADR (VAR-MEAN = MN2 - MN1) (line P 388/ADR 10; compound 20 μM): TOX

C=CCNc1nc(NCC=C)nc(N2CCC(NCC(c3cc(OC)cc(OC)c3)c3ccccc3C)CC2)n1 (stereo not shown) [Example 10, 1-[4,6-bis(allylamino)-2-s-triazinyl]-4-[2-(3,5-dimethoxyphenyl)-2-(2-methylphenyl)ethylamino]piperidine]
Increase in fluorescence of ADR (VAR-MEAN = MN2 - MN1) (line DC-3F/AD; compound 2 μM): 14.8 | Increase in fluorescence of ADR (VAR-MEAN = MN2 - MN1) (line DC-3F/AD; compound 5 μM): 24.7 | Increase in fluorescence of ADR (VAR-MEAN = MN2 - MN1) (line DC-3F/AD; compound 10 μM): 26.5 | Increase in fluorescence of ADR (VAR-MEAN = MN2 - MN1) (line DC-3F/AD; compound 20 μM): 28.2 | Reversion Factor (RF) ([3]; compound 2.5 μM): 259 | Reversion Factor (RF) ([3]; compound 5 μM): 1347 | Reversion Factor (RF) ([3]; compound 10 μM): TOX | Reversion Factor (RF) ([4]; compound 2.5 μM): 125.1 | Reversion Factor (RF) ([4]; compound 5 μM): 75.3 | Reversion Factor (RF) ([4]; compound 10 μM): TOX | Increase in fluorescence of ADR (VAR-MEAN = MN2 - MN1) (line P 388/ADR 10; compound 2 μM): 52.0 | Increase in fluorescence of ADR (VAR-MEAN = MN2 - MN1) (line P 388/ADR 10; compound 5 μM): 75.3 | Increase in fluorescence of ADR (VAR-MEAN = MN2 - MN1) (line P 388/ADR 10; compound 10 μM): 84.0 | Increase in fluorescence of ADR (VAR-MEAN = MN2 - MN1) (line P 388/ADR 10; compound 20 μM): 78.0

COC(=O)[C@H]1[C@H]2C[C@@H]3c4[nH]c5cc(OC)ccc5c4CCN3C[C@H]2C[C@@H](OC(=O)c2cc(OC)c(OC)c(OC)c2)[C@@H]1OC [RESERPINE]
Increase in fluorescence of ADR (VAR-MEAN = MN2 - MN1) (line DC-3F/AD; compound 2 μM): 26.18 | Increase in fluorescence of ADR (VAR-MEAN = MN2 - MN1) (line DC-3F/AD; compound 5 μM): 29.43 | Increase in fluorescence of ADR (VAR-MEAN = MN2 - MN1) (line DC-3F/AD; compound 10 μM): 31.73 | Increase in fluorescence of ADR (VAR-MEAN = MN2 - MN1) (line DC-3F/AD; compound 20 μM): 29.95 | Reversion Factor (RF) ([3]; compound 2.5 μM): 258 | Reversion Factor (RF) ([3]; compound 5 μM): 1085 | Reversion Factor (RF) ([3]; compound 10 μM): 1649 | Reversion Factor (RF) ([3]; compound 20 μM): 2024 | activity in reversing resistance in vitro ([4]; P 388/ADR-10, adriamycin): very good activity in vitro | Reversion Factor (RF) ([4]; compound 5 μM): 215.5 | Reversion Factor (RF) ([4]; compound 10 μM): 189 | toxicity [5]: high degree of toxicity | Increase in fluorescence of ADR (VAR-MEAN = MN2 - MN1) (line P 388/ADR 10; compound 2 μM): 73.46 | Increase in fluorescence of ADR (VAR-MEAN = MN2 - MN1) (line P 388/ADR 10; compound 5 μM): 80.48 | Increase in fluorescence of ADR (VAR-MEAN = MN2 - MN1) (line P 388/ADR 10; compound 10 μM): 91.90 | Increase in fluorescence of ADR (VAR-MEAN = MN2 - MN1) (line P 388/ADR 10; compound 20 μM): 85.39
